Test [1] has as its target T1, human CB1 receptor (Homo sapiens, UniProt P21554).
T1 construct: expressed in transfected cells; host or cells: SK-N-MC cells, stably transfected with pcDNA3 CB-1 (human); semi-purified membrane pellet
As to the kind of experiment: biochemical. It counts as binding. Summed up: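 Radioligand binding was run at 30° C for 90 minutes, pH 7.5 Tris buffer containing 0.5 mg/mL fatty acid free BSA, on semi-purified membranes of stably transfected SK-N-MC cells. Filter-bound radioactivity was scintillation counted, with IC50 obtained by linear regression across compound concentrations.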

For test [2], the target named is human CB2 receptor (Homo sapiens, UniProt P34972). As to the kind of experiment: Binding assay, cannabinoid CB2 receptor ([3H]-CP-55,940 displacement). To be noted: Cannabinoid CB2 Receptor Binding IC50, human CB2 receptor, SK-N-MC cell membranes, radioligand CP-55,940 0.2 nM. The procedure:
Binding Assay for CB1 or CB2 Agonists or Inverse Agonists
The human CB1 and CB2 receptors were stably expressed in SK-N-MC cells transfected with pcDNA3 CB-1 (human) or pcDNA3 CB-2 (human). The cells were grown in T-180 cell culture flasks under standard cell culture conditions at 37° C. in a 5% CO2 atmosphere. The cells were harvested by trysinization and homogenized in a homogenization buffer (10 mM Tris, 0.2 mM MgCl2, 5 mM KCl, with protease inhibitors aprotinin, leupeptin, pepstatin A and bacitracin) and centrifuged (2000 g). The supernatant was then centrifuged in 2M sucrose (31,300 g) to produce a semi-purified membrane pellet. The pellet was resuspended in homogenization and store at −80° C.
On the day of the assay, the pellet was thawed on ice and diluted in assay buffer (50 mM Tris-HCl, 5 mM MgCl2, 2.5 mM EDTA, 0.5 mg/mL fatty acid free bovine serum albumin, pH 7.5). The diluted membrane was added with buffer, test compound or standard and the radioligand [H]^3+-CP-55,940_(0.2 nM) to the wells of a 96-well polypropylene plate. Non-specific binding was measured in wells containing 10 uM WIN 55,212. The plate was covered and incubated for 90 minutes at 30° C. The contents were then aspirated onto a Packard UNIFILTER GF/C filter bottom plate prewet with 0.5% polyethyleneimine. The wells of the polypropylene plate were rinsed and aspirated seven times with a 0.9% saline-0.5% TWEEN 20 solution. The UNIFILTER plate was dried, a scintillation cocktail was added to each well and the counts representing binding were quantitated in a TOPCOUNT scintillation counter.
The IC50 binding values for compounds tested were calculated by linear regression and were obtained from studies in which varying compound concentrations were used.

T1 sequence (P21554 whole entry): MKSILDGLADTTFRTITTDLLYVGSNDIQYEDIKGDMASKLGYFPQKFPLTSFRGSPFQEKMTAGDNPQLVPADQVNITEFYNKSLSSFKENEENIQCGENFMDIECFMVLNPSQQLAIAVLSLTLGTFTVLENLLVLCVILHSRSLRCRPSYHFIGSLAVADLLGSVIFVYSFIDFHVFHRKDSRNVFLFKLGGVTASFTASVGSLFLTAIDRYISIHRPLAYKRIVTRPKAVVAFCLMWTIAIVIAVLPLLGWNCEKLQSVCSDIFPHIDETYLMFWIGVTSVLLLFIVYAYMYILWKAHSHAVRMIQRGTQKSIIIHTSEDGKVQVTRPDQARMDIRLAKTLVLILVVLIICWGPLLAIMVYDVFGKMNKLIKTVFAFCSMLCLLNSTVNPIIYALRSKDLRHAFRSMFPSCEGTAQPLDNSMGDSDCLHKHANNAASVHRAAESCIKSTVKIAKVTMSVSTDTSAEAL
human CB2 receptor, sequence (P34972 whole entry): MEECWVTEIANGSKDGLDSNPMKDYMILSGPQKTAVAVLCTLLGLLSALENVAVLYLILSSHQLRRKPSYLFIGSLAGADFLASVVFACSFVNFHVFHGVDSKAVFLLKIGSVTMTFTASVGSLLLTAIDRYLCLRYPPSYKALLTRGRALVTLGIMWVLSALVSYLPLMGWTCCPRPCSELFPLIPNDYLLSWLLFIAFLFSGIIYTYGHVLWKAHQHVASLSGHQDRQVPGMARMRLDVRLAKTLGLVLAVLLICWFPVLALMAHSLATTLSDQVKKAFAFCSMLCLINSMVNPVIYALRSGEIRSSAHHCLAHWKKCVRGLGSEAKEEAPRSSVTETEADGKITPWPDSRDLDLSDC

Regarding `CCOC(=O)C1CCc2c(C(=O)NC(C)C34CC5CC(CC(C5)C3)C4)nn(C3CCCCC3)c2C1` (centres unmarked) [compound 69], the IC50 in test [1] came to 220 nM; in test [2] it was 2.7 nM.
Consider `CCOC(=O)C1CCCc2c1c(C(=O)NC1C3CC4CC(C3)CC1C4)nn2C1CCCCC1` (centres unmarked) [compound 71], for which the values for the IC50 in test [1] and in test [2] were 530 nM and 500 nM, respectively.
Taken in the same sequence, the figures for `CCOC(=O)C1CCCc2c1c(C(=O)NC(C)C13CC4CC(CC(C4)C1)C3)nn2C1CCCCC1` (centres unmarked) [compound 72] were 8400 nM and 4100 nM.
Regarding `CC12CCC(C1)C(C)(C)C2NC(=O)c1nn(C2CCCCCC2)c2c1CCCC2` (centres unmarked) [compound 74], the IC50 in test [1] turned out to be 15 nM; in test [2] it was 1.4 nM.
Regarding `COC(=O)C(Cc1ccc(O)cc1)NC(=O)c1nn(C2CCCCC2)c2c1CCCC2` (centres unmarked) [compound 77], the concentration for half-maximal inhibition (IC50) is 52 nM in test [1] and 3 nM in test [2].
The corresponding values for `O=C(NC(Cc1ccc(OCc2ccccc2)cc1)C(=O)O)c1nn(C2CCCCC2)c2c1CCCC2` (centres unmarked) [compound 78] are 4600 nM and 1210 nM.
Turning to `O=C(NC1C2CC3CC(C2)CC1C3)c1nn(C2CCCCC2)c2c1CC(C(=O)OCc1ccccc1)CC2` (centres unmarked) [compound 79], the IC50 in test [1] worked out at 30 nM; in test [2], 10 nM.
Taken in the same sequence, the figures for `COC(=O)C(Cc1ccc(OCc2ccccc2)cc1)NC(=O)c1nn(Cc2ccccc2)c2c1CCCC2` (centres unmarked) [compound 80] were 230 nM and 170 nM.
The corresponding values for `COC(=O)C(Cc1ccc(OCc2ccccc2)cc1)NC(=O)c1nn(C2CCCCC2)c2c1CCCC2` (centres unmarked) [compound 81] are 490 nM and 20 nM.
The corresponding values for `COC(=O)C(Cc1ccc(O)c(O)c1)NC(=O)c1nn(Cc2ccccc2)c2c1CCCC2` (centres unmarked) [compound 82] are 700 nM and 200 nM.
Consider `COC(=O)C(Cc1c[nH]c2ccccc12)NC(=O)c1nn(Cc2ccccc2)c2c1CCCC2` (centres unmarked) [compound 83], for which the IC50 in test [1] worked out at 38 nM; in test [2] it was 20 nM.
Taken in the same sequence, the figures for `CC(C)(C)OC(=O)NC1CCc2c(c(C(=O)NC3C4CC5CC(C4)CC3C5)nn2C2CCCCC2)C1` (centres unmarked) [compound 85] were 600 nM and 82 nM.
The corresponding values for `COC(=O)NC1CCc2c(c(C(=O)NC3C4CC5CC(C4)CC3C5)nn2C2CCCCC2)C1` (centres unmarked) [compound 88] are 2400 nM and 87 nM.
Taken in the same sequence, the figures for `O=C(NC1C2CC3CC(C2)CC1C3)c1nn(C2CCCCC2)c2c1CC(NC(=O)N1CCOCC1)CC2` (centres unmarked) [compound 90] were 1840 nM and 1120 nM.
`CC(NC(=O)c1nn(C2CCCCC2)c2c1CC(=O)CC2)C12CC3CC(CC(C3)C1)C2` (centres unmarked) [compound 97]: the values for the IC50 in test [1] and in test [2] were 9700 nM and 30 nM, respectively.
Turning to `CC(C)(C)C1CCc2c(c(C(=O)NC3C4(C)CCC(C4)C3(C)C)nn2C2CCCCC2)C1` (centres unmarked) [compound 99], the IC50 worked out at 960 nM in test [1] and 250 nM in test [2].
The corresponding values for `CS(=O)(=O)NC1CCc2c(c(C(=O)NC3C4CC5CC(C4)CC3C5)nn2C2CCCCC2)C1` (centres unmarked) [compound 104] are 17100 nM and 200 nM.
Turning to `CCOC[C@H]1C2CCC(C2)[C@H]1NC(=O)c1nn(C2CCCCC2)c2c1CCCC2` (some centres unmarked) [compound 107], the concentration for half-maximal inhibition (IC50) came to 910 nM in test [1] and 1400 nM in test [2].
Taken in the same sequence, the figures for `CCOC(=O)C1CC=CCC1NC(=O)c1nn(Cc2ccccc2)c2c1CCCC2` (centres unmarked) [compound 119] were 6 nM and 10 nM.
Taken in the same sequence, the figures for `CCOC(=O)C1CC=CCC1NC(=O)c1nn(C2CCCCC2)c2c1CCCC2OC` (centres unmarked) [compound 120] were 2460 nM and 875 nM.
`CCOC(=O)[C@H]1C2CCC(C2)[C@H]1NC(=O)c1nn(CC2CCCCC2)c2c1CCCC2` (some centres unmarked) [compound 124]: the half-maximal inhibitory concentration (IC50) in test [1] stood at 7 nM; in test [2] it was 16 nM.
The corresponding values for `Cc1ccc(Cn2nc(C(=O)NC3C4(C)CCC(C4)C3(C)C)c3c2CCCC3)cc1` (centres unmarked) [compound 125] are 26 nM and 2.2 nM.

One may read the IC50 as the concentration that inhibits the measured activity by half.

For the origin of these results see US7452997B2 (priority 2004, dated 2008).
